Data as given in patent US20130190487A1, “PROCESS FOR THE PREPARATION OF EZETIMIBE AND DERIVATIVES THEREOF” (KRKA, priority 2007, published 2013).
Each block holds one compound with its values, some of them ahead of it.

What was measured:
Assay type in all cases: physicochemical
[1] = Water sorption/desorption on automatic water sorption analyzer DVS-1; conditions: 25° C.
Experimental: Anhydro form of ezetimibe was tested on the automatic water sorption analyzer DVS-1 (Surface Measurement Systems Ltd., London, GB) under the following conditions: • controlled room temperature (25° C.) • nitrogen flow 200 ml/min • two full cycles from 0% RH to 95% RH and back in eleven stages • minimal time per one stage (when dm/dt<0.002%) was 10 min • maximal time per one stage was 360 min.

[2] = Drying in an air dryer, XRPD analysis
Source text: Hydrated form H of ezetimibe was dried in an air dryer (RH was 35%) at two different temperatures.

[3] = Drying in a vacuum dryer, XRPD analysis; conditions: ambient temperature, cca. 100 mbar
Experimental: Hydrated form H of ezetimibe was dried in a vacuum dryer at an ambient temperature and a pressure of cca. 100 mbar. After 1 h anhydrous form already predominated (A>H), after 2 h it became the sole form according to XRPD analysis.

[4] = Heating in Mettler HR73 Halogen Moisture Analyzer (LOD), then XRPD analysis
Source text: Hydrated form H of ezetimibe (from Example 30) was heated in a Mettler HR73 Halogen Moisture Analyzer. […] In all cases anhydro form of ezetimibe resulted according to XRPD analysis.
Pure S form of ezetimibe (tert.-butanol solvate; from Example 32) was heated in a Mettler HR73 Halogen Moisture Analyzer at different temperatures for the time indicated and analyzed by XRPD.

mass in the desorption cycle ([1]; at 20% RH): dropped sharply
mass in the desorption cycle ([1]; down to 30% RH): not significantly changed
water sorption, mass change at equilibrium ([1]; first cycle, 60% RH): 4.2%
water sorption, total ([1]; first cycle, 95% RH): 4.4%
absorption of water ([1]; first cycle, up to 50% RH): no significant absorption of water
water sorption ([1]; second cycle, 50% RH): increased sharply
SMILES: O=C1[C@H](CC[C@H](O)c2ccc(F)cc2)[C@@H](c2ccc(O)cc2)N1c1ccc(F)cc1 [Anhydro form of ezetimibe, 1-(4-fluorophenyl)-3(R)-[3-(4-fluorophenyl)-3(S)-hydroxypropyl]-4(S)-(4-hydroxyphenyl)-2-azetidinone]

form detected according to XRPD analysis ([2]; air dryer, RH 35%, 40° C., after 1 h): only anhydro form
temperature at which converted to anhydrous form A ([2]; upon drying): about 40 °C
form according to XRPD analysis ([3]; after 1 h): A>H
form according to XRPD analysis ([3]; after 2 h): sole form
time to constant value of LOD ([4]; 50° C.): 11.5 min
time to constant value of LOD ([4]; 60° C.): 6.5 min
time to constant value of LOD ([4]; 70° C.): 4.5 min
resulting form according to XRPD analysis ([4]; after heating at 50, 60 or 70° C. to constant LOD): anhydro form
Constant value of LOD ([4]; heated at 50° C., 60° C. or 70° C.): −4.5%
SMILES: O=C1[C@H](CC[C@H](O)c2ccc(F)cc2)[C@@H](c2ccc(O)cc2)N1c1ccc(F)cc1 [Hydrated form H of ezetimibe, 1-(4-fluorophenyl)-3(R)-[3-(4-fluorophenyl)-3(S)-hydroxypropyl]-4(S)-(4-hydroxyphenyl)-2-azetidinone]

stability upon drying [4]: stable upon drying
LOD (%) ([4]; 50 ° C., 14 min): −0.83%
LOD (%) ([4]; 60 ° C., 10.5 min): −1.10%
LOD (%) ([4]; 70 ° C., 9 min): −2.34%
LOD (%) ([4]; 130 ° C., 4.5 min): −12.0%
loss of drying ([4]; temperature of about 70° C.): only minimal loss of drying
SMILES: O=C1[C@H](CC[C@H](O)c2ccc(F)cc2)[C@@H](c2ccc(O)cc2)N1c1ccc(F)cc1 [S form of ezetimibe, 1-(4-fluorophenyl)-3(R)-[3-(4-fluorophenyl)-3(S)-hydroxypropyl]-4(S)-(4-hydroxyphenyl)-2-azetidinone]
